Measurements as given in patent US9113629B2, “4-amino-6-(4-substituted-phenyl)-picolinates and 6-amino-2-(4-substituted-phenyl)-pyrimidine-4-carboxylates and their use as herbicides” (DOW AGROSCIENCES LLC, priority 2013, dated 2015).
Read-outs that look alike come from different tables or passages of the source.

Tests used:
[1] = system: Key Broadleaf Weed and Crop Species; experiment: Post-emergent Test II herbicidal activity (Table 5); assay type: in vivo; settings: post-emergence, 336 h, post-emergent, 14 days after application; for pest or weed control at 70 g/ha: 70 g ai/ha; for pest or weed control at 140 g/ha: 140 g ai/ha
How it was run: (§1)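 Percent injury, 0 (none) to 100 (complete kill), was judged visually 14 d after spraying young plants at the first or second true leaf stage with compound in an acetone/DMSO aqueous carrier at 187 L/ha. Plants were kept in a greenhouse at 23–29 °C by day.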

[2] = system: Key Grass and Sedge Weeds as well as Grass Crops; experiment: Post-emergent Test II herbicidal activity (Table 6); assay type: in vivo; settings: post-emergence, 336 h; for pest or weed control at 70 g/ha: application rate 70 g ai/ha; for pest or weed control at 140 g/ha: application rate 140 g ai/ha
How it was run: as §1

[3] = ABUTH: velvetleaf (Abutilon theophrasti), read-out: Visual Growth Reduction (%) 14 Days After Application ABUTH
[4] = AMARE: redroot pigweed (Amaranthus retroflexus), read-out: Visual Growth Reduction (%) 14 Days After Application AMARE
[5] = BRSNN: oilseed-rape, canola (Brassica napus), read-out: Visual Growth Reduction (%) 14 Days After Application BRSNN
[6] = CHEAL: lambsquarters (Chenopodium album), read-out: Visual Growth Reduction (%) 14 Days After Application CHEAL
[7] = EPHHL: wild poinsettia (Euphorbia heterophylla), read-out: Visual Growth Reduction (%) 14 Days After Application EPHHL
[8] = HELAN: sunflower (Helianthus annuus), read-out: Visual Growth Reduction (%) 14 Days After Application HELAN
[9] = VIOTR: wild pansy (Viola tricolor), read-out: Visual Growth Reduction (%) 14 Days After Application VIOTR
[10] = Triticum aestivum, TRZSS (wheat), read-out: Visual Growth Reduction (%) 14 Days After Application, TRZSS
[11] = CYPES: yellow nutsedge (Cyperus esculentus), read-out: Visual Growth Reduction (%) 14 Days After Application, CYPES
[12] = DIGSA: crabgrass (Digitaria sanguinalis), read-out: Visual Growth Reduction (%) 14 Days After Application, DIGSA
[13] = ECHCG: barnyardgrass (Echinochloa crus-galli), read-out: Visual Growth Reduction (%) 14 Days After Application, ECHCG
[14] = ORYSA: rice (Oryza sativa), read-out: Visual Growth Reduction (%) 14 Days After Application, ORYSA
[15] = SETFA: giant foxtail (Setaria faberi), read-out: Visual Growth Reduction (%) 14 Days After Application, SETFA
[16] = SORVU: grain sorghum (Sorghum vulgare), read-out: Visual Growth Reduction (%) 14 Days After Application, SORVU
[17] = ZEAMX: maize, corn (Zea mays), read-out: Visual Growth Reduction (%) 14 Days After Application, ZEAMX

| SMILES | pest or weed control at 70 g/ha [1, 3] | pest or weed control at 140 g/ha [1, 3] | pest or weed control at 70 g/ha [1, 4] | pest or weed control at 140 g/ha [1, 4] | pest or weed control at 70 g/ha [1, 5] | pest or weed control at 140 g/ha [1, 5] | pest or weed control at 70 g/ha [1, 6] | pest or weed control at 140 g/ha [1, 6] | pest or weed control at 70 g/ha [1, 7] | pest or weed control at 140 g/ha [1, 7] | pest or weed control at 70 g/ha [1, 8] | pest or weed control at 140 g/ha [1, 8] | pest or weed control at 70 g/ha [1, 9] | pest or weed control at 140 g/ha [1, 9] | pest or weed control at 70 g/ha [2, 10] | pest or weed control at 140 g/ha [2, 10] | pest or weed control at 70 g/ha [2, 11] | pest or weed control at 140 g/ha [2, 11] | pest or weed control at 70 g/ha [2, 12] | pest or weed control at 140 g/ha [2, 12] | further results |
| --- | --- | --- | --- | --- | --- | --- | --- | --- | --- | --- | --- | --- | --- | --- | --- | --- | --- | --- | --- | --- | --- |
| C#Cc1ccc(-c2cc(N)c(Cl)c(C(=O)OC)n2)cc1 [Compound 126] | 95 to 100% | 95 to 100% | 95 to 100% | 95 to 100% | 75 to 84% | 85 to 94% | 95 to 100% | 95 to 100% | 95 to 100% | 95 to 100% | 85 to 94% | 95 to 100% | 0 to 29% | 30 to 44% | 0 to 29% | 0 to 29% | 60 to 74% | 30 to 44% | 75 to 84% | 85 to 94% | pest or weed control at 70 g/ha [2, 13]: 95 to 100%; pest or weed control at 140 g/ha [2, 13]: 95 to 100%; pest or weed control at 70 g/ha [2, 14]: 0 to 29%; pest or weed control at 140 g/ha [2, 14]: 0 to 29%; pest or weed control at 70 g/ha [2, 15]: 0 to 29%; pest or weed control at 140 g/ha [2, 15]: 75 to 84%; pest or weed control at 70 g/ha [2, 16]: 75 to 84%; pest or weed control at 140 g/ha [2, 16]: 85 to 94%; pest or weed control at 70 g/ha [2, 17]: 0 to 29%; pest or weed control at 140 g/ha [2, 17]: 60 to 74% |
| COC(=O)c1nc(-c2cc(F)c(Br)cc2F)cc(N)c1Cl [Compound 127, methyl 4-amino-6-(4-bromo-2,5-difluorophenyl)-3-chloropicolinate] | 95 to 100% | 95 to 100% | 95 to 100% | 95 to 100% | 85 to 94% | 95 to 100% | 95 to 100% | 95 to 100% | 95 to 100% | 95 to 100% | 85 to 94% | 95 to 100% | 95 to 100% | 95 to 100% | 60 to 74% | 75 to 84% | 95 to 100% | 95 to 100% | 85 to 94% | 95 to 100% | pest or weed control at 70 g/ha [2, 13]: 95 to 100%; pest or weed control at 140 g/ha [2, 13]: 95 to 100%; pest or weed control at 70 g/ha [2, 14]: 0 to 29%; pest or weed control at 140 g/ha [2, 14]: 0 to 29%; pest or weed control at 70 g/ha [2, 15]: 95 to 100%; pest or weed control at 140 g/ha [2, 15]: 95 to 100%; pest or weed control at 70 g/ha [2, 16]: 95 to 100%; pest or weed control at 140 g/ha [2, 16]: 95 to 100%; pest or weed control at 70 g/ha [2, 17]: 85 to 94%; pest or weed control at 140 g/ha [2, 17]: 85 to 94% |
| C=Cc1c(C(=O)O)nc(-c2ccc(I)cc2)c(F)c1N [Compound 17] | 95 to 100% | 95 to 100% | 95 to 100% | 95 to 100% | 95 to 100% | 95 to 100% | 85 to 94% | 95 to 100% | 95 to 100% | 95 to 100% | 85 to 94% | 95 to 100% | 0 to 29% | 0 to 29% | 30 to 44% | 45 to 59% | 95 to 100% | 95 to 100% | 0 to 29% | 0 to 29% | pest or weed control at 70 g/ha [2, 13]: 75 to 84%; pest or weed control at 140 g/ha [2, 13]: 85 to 94%; pest or weed control at 70 g/ha [2, 14]: 60 to 74%; pest or weed control at 140 g/ha [2, 14]: 85 to 94%; pest or weed control at 70 g/ha [2, 15]: 0 to 29%; pest or weed control at 140 g/ha [2, 15]: 45 to 59%; pest or weed control at 70 g/ha [2, 16]: 85 to 94%; pest or weed control at 140 g/ha [2, 16]: 95 to 100%; pest or weed control at 70 g/ha [2, 17]: 60 to 74%; pest or weed control at 140 g/ha [2, 17]: 75 to 84% |
